The test system of assay [1] is HSV-1. Put plainly: HSV antiviral (ELISA) assay in Vero cells. It is filed as cell-based, herpes simplex virus type 1. The note with it: HSV-1 in Vero cells; for IC50: Human alphaherpesvirus 1, read-out: IC50 (ug/ml) HSV. The method, then:
HSV antiviral (ELISA) assay
Vero cells (ATCC #CCL-81) are plated on 96-well tissue culture plates at 3.5x10^4 cells per 100µl tissue culture DMEM (Dulbecco's modified Eagle media) supplemented with 2% fetal bovine serum (FBS) in each well. After overnight incubation @ 37°C (in 5% CO2) and 30 minutes prior to infection with HSV-1 (multiplicity of infection equal to 0.006), cells are either untreated, or treated with test compound (multiple concentrations) or reference standard drug control. After approximately 24 hours post-infection incubation @ 37°C (in 5% CO2), cells are fixed for ELISA assay. The primary antibody is murine anti-HSV glycoprotein D monoclonal primary antibody and the secondary antibody is goat anti-mouse IgG linked to β-galactosidase. Thus the extent of viral replication is determined by assessing β-galactosidase activity by quantifying the generation of the 4-methyl umbelliferone fluorescent cleavage product after addition of the methyl umbelliferyl-β-D-galactoside (Sigma #M1633) substrate on a microfluorimeter (365nm for excitation and 450nm for emission). Antiviral activity (IC50) of the test compound is determined by comparing the flourescence obtained in absence of compound to that obtained in the presence of compound.
A general note: An ELISA detects its analyte on a solid surface through an enzyme-linked reagent.

In assay [2] the test system is VZV strain Ellen. The assay can be described thus: VZV antiviral (ELISA) assay in human foreskin fibroblast cells. It is filed as cell-based, varicella-zoster virus. The note with it: for inhibition at 10 µg/mL: Human alphaherpesvirus 3, Fibroblast, read-out: % inhibition 10 ug/ml VZV; for IC50: Human alphaherpesvirus 3, read-out: IC50 (ug/ml) VZV. How it is done: VZV antiviral (ELISA) assay
For the generation of stock VZV to be used in the assay, VZV strain Ellen (ATCC #VR-1367) is used to infect human foreskin fibroblast (HFF) cells at low multiplicity (less than 0.1) and incubated overnight at 37°C in 5% CO2. After the overnight incubation, the mixture of uninfected and VZV-infected HFF infected cells are then harvested and added to each well of 96-well plates (3.5x10^4 cells in 100 µl DMEM supplemented with 2% FBS) which contain test compound or the reference standard drug control (in 100µl DMEM supplemented with 2% FBS per well). These cells are incubated for three days at 37°C in 5% CO2, then fixed for ELISA assay. The primary antibody is murine anti-VZV glycoprotein II monoclonal antibody (Applied Biosystems, Inc. #13-145-100) and the secondary antibody is goat anti-mouse IgG linked to β-galactosidase. Thus the extent of viral replication is determined by assessing β-galactosidase activity by quantifying the generation of the 4-methyl umbelliferone fluorescent cleavage product after addition of the methyl umbelliferyl-β-D-galactoside (Sigma #M1633) substrate on a microfluorimeter (365nm for excitation and 450nm for emission). Antiviral activity (IC50) of the test compound is determined by comparing the flourescence obtained in absence of compound to that obtained in the presence of compound.

Assay [3] relates to HCMV recombinant mutant virus. The assay can be described thus: microbe, parasite or virus in culture. The class given is cell-based, human cytomegalovirus. Conditions: for IC50: Human betaherpesvirus 5, read-out: IC50 (ug/ml) HCMV. From the text: Microtiter plate assay. Ninety-six well plate cultures of human foreskin fibroblasts are infected in the presence of inhibitor compound with a HCMV recombinant mutant virus whose genome contains the prokaryotic beta-glucuronidase gene (Jefferson, R. A., S. M. Burgess, and D. Hirsh. 1986. Beta-glucuronidase from Escherichia coli as a gene fusion marker. Proc. Natl. Acad. Sci. USA 83:8447-8451) whose expression is controlled by a viral promoter. An example of such a virus is RV145 (Jones, T. R., V. P. Muzithras, and Y. Gluzman. 1991. Replacement mutagenesis of the human cytomegalovirus genome: US10 and US11 gene products are nonessential. J. Virol. 65:5860-5872). Since it is under the control of a viral promoter, beta-glucuronidase expression is an indirect indicator of growth and replication of HCMV in this assay. At 96 hours post-infection, the infected cell lysates are prepared (using 50mM sodium phosphate [pH7.0] containing 0.1 % Triton X-100 and 0.1% sarkosyl) and assayed for beta-glucuronidase activity using a substrate for the enzyme which when cleaved yields either a product which can be measured colorimetrically in a spectrophotometer or fluorescently in a microfluorimeter. Examples of such substrates are p-nitrophenyl-beta-D-glucuronide and methylumbelliferylglucuronide, respectively. The presence of an antiviral compound is indicated by the reduced expression of the HCMV genome resident beta-glucuronidase gene, compared to the absence of inhibitor. […] Data from this assay generated using varying amounts of inhibitor compound is also used to estimate the IC50 of an inhibitor compound.

Values after ≈ are worked out from the molar mass of the structure shown.

Turning to `COc1cc(OC)c(NC(=S)Nc2ccc(NC(=O)c3ccccc3F)c(OC)c2)cc1Cl` [Example 303, N-{4-[3-(5-Chloro-2,4-dimethoxy-phenyl)-thioureido]-2-methoxy-phenyl}-2-fluoro-benzamide], the IC50 in assay [1], in assay [2] (VZV strain Ellen in HFF cells) and in assay [3] was over 10 µg/mL each time. Further, in assay [2], the inhibition at 10 µg/mL was found to be 15%.
Consider `COc1cc(NC(=S)NC(C)c2ccc(F)cc2)c(OC)cc1NC(=O)c1ccccc1F` (centres unmarked) [Example 1025, 2-Fluoro-N-(4-{3-[1-(4-fluoro-phenyl)-ethyl]-thioureido}-2,5-dimethoxy-phenyl)-benzamide], for which the IC50 in assay [1], in assay [2] (VZV strain Ellen in HFF cells) and in assay [3] was over 10 µg/mL in each case.
Take “(5H,11H-Benzo[e]pyrrolo[1,2-a][1,4]diazepin-10-yl)-(2-chloro-4-imidazol-1-yl-phenyl)-methanone [Example 322]”: the “IC50 (ug/ml) HSV” value in assay [1] is 4 µg/mL. For the same compound, the “% inhibition 10 ug/ml VZV” value in assay [2] (10 ug/ml) is recorded as 108%. The “IC50 (ug/ml) VZV” value in assay [2] (VZV strain Ellen in HFF cells) turned out to be 8 µg/mL. Also, the “IC50 (ug/ml) HCMV” value in assay [3] (HCMV, the table does not say which HCMV assay) is 7 µg/mL.
Regarding `COc1cc(OC)c(NC(=S)Nc2ccc(NC(=O)c3ccccc3F)c(C)c2)cc1Cl` [Example 310, N-{4-[3-(5-Chloro-2,4-dimethoxy-phenyl)-thioureido]-2-methyl-phenyl}-2-fluoro-benzamide], the IC50 was 2 µg/mL (≈ 4.22 µM) in assay [1], over 10 µg/mL in assay [2] (VZV strain Ellen in HFF cells) and over 10 µg/mL in assay [3]. Moreover, the inhibition at 10 µg/mL in assay [2] turned out to be 40%.
As for `CC(=O)Nc1ccc(NC(=S)Nc2ccc(NC(=O)c3ccc4ccccc4c3O)c(Cl)c2)cc1` [Example 204, 1-Hydroxy-naphthalene-2-carboxylic acid {4-[3-(4-acetylamino-phenyl)-thioureido]-2-chloro-phenyl}-amide], the results for the IC50 in assay [1], in assay [2] (VZV strain Ellen in HFF cells) and in assay [3] were 4 µg/mL (≈ 7.92 µM), over 10 µg/mL and 8 µg/mL (≈ 15.8 µM), respectively. In addition, in assay [2], the inhibition at 10 µg/mL came out at 41%.
`CC(NC(=S)Nc1ccc(NC(=O)c2ccccc2F)c(OCc2ccccc2)c1)c1ccc(C#N)cc1` (centres unmarked) [Example 1050, N-(2-Benzyloxy-4-{3-[1-(4-cyano-phenyl)-ethyl]-thioureido}-phenyl)-2-fluoro-benzamide]: the IC50 in assay [1] is over 10 µg/mL; in assay [2] (VZV strain Ellen in HFF cells) it was over 7.5 µg/mL; in assay [3] it was over 10 µg/mL.
Take `CCCCOc1cc(NC(=S)NC(C)c2ccc(C#N)cc2)ccc1NC(=O)c1ccccc1F` (centres unmarked) [Example 1056, N-(2-Butoxy-4-{3-[1-(4-cyano-phenyl)-ethyl]-thioureido}-phenyl)-2-fluoro-benzamide]: the IC50 in assay [1] was over 10 µg/mL; in assay [2] (VZV strain Ellen in HFF cells) it was 0.4 µg/mL (≈ 0.815 µM); in assay [3], 2.5 µg/mL (≈ 5.1 µM).
As for `COc1cc(NC(=O)c2ccccc2F)ccc1NC(=S)Nc1ccc(SC)c(Cl)c1` [Example 420, N-{4-[3-(3-Chloro-4-methylsulfanyl-phenyl)-thioureido]-3-methoxy-phenyl}-2-fluoro-benzamide], the IC50 in assay [1] was 0.2 µg/mL (≈ 0.42 µM); in assay [2] (VZV strain Ellen in HFF cells) it was over 10 µg/mL; in assay [3], 7 µg/mL (≈ 14.7 µM). In assay [2], the inhibition at 10 µg/mL is 34%.
Regarding `COc1cc(NC(=O)c2ccccc2F)ccc1NC(=S)Nc1cc(Cl)c(C)cc1OC` [Example 418, N-{4-[3-(5-Chloro-2-methoxy-4-methyl-phenyl)-thioureido]-3-methoxy-phenyl}-2-fluoro-benzamide], the IC50 is 0.05 µg/mL (≈ 0.105 µM) in assay [1], over 10 µg/mL in assay [2] (VZV strain Ellen in HFF cells) and 3 µg/mL (≈ 6.33 µM) in assay [3]. The inhibition at 10 µg/mL in assay [2] worked out at 10%.
The like results for `CSc1ccc(NC(=S)Nc2ccc(NC(=O)c3ccccc3F)c(C)c2)cc1Cl` [Example 408, N-{4-[3-(3-Chloro-4-methylsulfanyl-phenyl)-thioureido]-2-methyl-phenyl}-2-fluoro-benzamide] were, in that order, 0.2 µg/mL (≈ 0.435 µM), over 10 µg/mL, 6 µg/mL (≈ 13 µM) and 56%.
As for `CCCCOc1cc(NC(=S)NC(C)c2ccc(F)cc2)ccc1NC(=O)c1ccccc1F` (centres unmarked) [Example 1055, N-(2-Butoxy-4-{3-[1-(4-fluoro-phenyl)-ethyl]-thioureido}-phenyl)-2-fluoro-benzamide], the figures for the IC50 in assay [1], in assay [2] (VZV strain Ellen in HFF cells) and in assay [3] were over 10 µg/mL, 0.32 µg/mL (≈ 0.662 µM) and over 10 µg/mL, respectively.
On to `CC(NC(=S)Nc1ccc(NC(=O)c2ccccc2F)c(Cl)c1)c1ccc(F)cc1` (centres unmarked) [Example 1038, N-(2-Chloro-4-{3-[1-(4-fluoro-phenyl)-ethyl]-thioureido}-phenyl)-2-fluoro-benzamide], for which the IC50 in assay [1] came to 3 µg/mL (≈ 6.73 µM); in assay [2] (VZV strain Ellen in HFF cells), 0.04 µg/mL (≈ 0.0897 µM); in assay [3], 3.5 µg/mL (≈ 7.85 µM).
Turning to `C[C@H](NC(=S)Nc1ccc(NC(=O)c2ccccc2F)c(C#N)c1)c1ccc(Br)cc1` [Example 1104, N-(4-{3-[(1S)-1-(4-Bromo-phenyl)-ethyl]-thioureido}-2-cyano-phenyl)-2-fluoro-benzamide], the IC50 was 0.09 µg/mL (≈ 0.181 µM) in assay [2] (VZV strain Ellen in HFF cells) and over 10 µg/mL in assay [3].
The like results for `C[C@@H](NC(=S)Nc1ccc(NC(=O)c2ccccc2F)c(C#N)c1)c1ccc(Br)cc1` [Example 1105, N-(4-{3-[(1R)-1-(4-Bromo-phenyl)-ethyl]-thioureido}-2-cyano-phenyl)-2-fluoro-benzamide] were, in that order, over 7.5 µg/mL and 1.1 µg/mL (≈ 2.21 µM).
In the case of `CC(NC(=S)Nc1ccc(NC(=O)c2ccccc2F)cc1C(F)(F)F)c1ccc(F)cc1` (centres unmarked) [Example 1102, 2-Fluoro-N-(4-{3-[1-(4-fluoro-phenyl)-ethyl]-thioureido}-3-trifluoromethyl-phenyl)-benzamide], the IC50 was over 7.5 µg/mL in assay [2] (VZV strain Ellen in HFF cells) and 5 µg/mL (≈ 10.4 µM) in assay [3].
On to `C[C@H](NC(=S)Nc1ccc(NC(=O)c2ccccc2F)c(C#N)c1)c1ccc(Cl)cc1` [Example 1109, N-{4-[({[(1S)-1-(4-chlorophenyl)ethyl]amino}carbothioyl)amino]-2-cyanophenyl}-2-fluorobenzamide], for which the IC50 in assay [2] (VZV strain Ellen in HFF cells) was 0.07 µg/mL (≈ 0.155 µM); in assay [3], over 10 µg/mL.
With `C[C@H](NC(=S)Nc1ccc(NC(=O)c2cc3ccccc3cn2)c(C(F)(F)F)c1)c1ccc(Br)cc1` [Example 1103, Isoquinline-3-carboxylic acid (4-{3-[(1S)-1-(4-bromo-phenyl)-ethyl]-thioureido}-2-trifluoromethyl-phenyl)-amide], the results for the IC50 in assay [2] (VZV strain Ellen in HFF cells) and in assay [3] were 0.12 µg/mL (≈ 0.209 µM) and 5 µg/mL (≈ 8.72 µM), respectively.
The like results for `C[C@H](NC(=S)Nc1ccc(NC(=O)c2ccccc2F)c(C#N)c1)c1ccc(F)cc1` [Example 1108, N-{4-[({[(1S)-1-(4-fluorophenyl)ethyl]amino}carbothioyl)amino]-2-cyanophenyl)-2-fluorobenzamide] were, in that order, 0.03 µg/mL (≈ 0.0687 µM) and over 10 µg/mL.
The like results for `Cc1cc(NC(=O)c2ccccc2F)ccc1NC(=O)N[C@H](C)c1ccc(F)cc1` [Example 1107, 2-fluoro-N-{4-[({[(1R)-1-(4-fluorophenyl)ethyl]amino}carbonyl)amino]-3-methylphenyl}benzamide] were, in that order, 0.04 µg/mL (≈ 0.0977 µM) and over 10 µg/mL.
For `C[C@H](NC(=O)Nc1ccc(NC(=O)c2ccccc2F)c(C#N)c1)c1ccc(F)cc1` [Example 1106, N-{2-cyano-4-[({[(1S)-1-(4-fluorophenyl)ethyl]amino}carbonyl)amino]phenyl}-2-fluorobenzamide], the IC50 is 0.014 µg/mL (≈ 0.0333 µM) in assay [2] (VZV strain Ellen in HFF cells) and over 10 µg/mL in assay [3].

Values taken from patent EP1137632B1, “THIOUREA INHIBITORS OF HERPES VIRUSES” (Wyeth, priority 1998, dated 2000).
